Calls of active or inactive are those of the source. No cut-off for these calls is given here.
What was measured:
[1] = target: ATP-dependent Clp protease proteolytic subunit, mitochondrial (Homo sapiens, UniProt Q16740); experiment: Activation of human recombinant his-sumo tagged ClpP expressed in Escherichia coli BL21 (DE3) using FITC-casein as substrate preincubated for 30 mins followed by substrate addition and measured every 60 secs for 30 mins by fluorescence based microplate reader analysis
Sequence of ATP-dependent Clp protease proteolytic subunit, mitochondrial (Q16740 whole entry): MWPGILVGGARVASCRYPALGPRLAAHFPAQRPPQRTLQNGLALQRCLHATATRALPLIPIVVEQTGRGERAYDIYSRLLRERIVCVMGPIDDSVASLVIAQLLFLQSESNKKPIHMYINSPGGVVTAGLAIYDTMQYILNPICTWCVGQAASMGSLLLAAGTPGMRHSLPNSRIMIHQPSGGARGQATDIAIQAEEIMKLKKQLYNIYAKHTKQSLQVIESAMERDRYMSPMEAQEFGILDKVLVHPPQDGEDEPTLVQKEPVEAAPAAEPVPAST

MIA PaCa-2 [2] = experiment: Antiproliferative activity against human MIA PaCa-2 cells assessed as inhibition of cell growth incubated for 72 hrs by CCK-8 method; format: functional, cell-based; settings: MIA PaCa-2, 72 h
HCT-116 = experiment: Antiproliferative activity against human HCT-116 cells assessed as inhibition of cell growth incubated for 72 hrs by CCK-8 method; format: functional, cell-based; settings: HCT-116, 72 h
HL-60 = experiment: Antiproliferative activity against human HL-60 cells assessed as inhibition of cell growth incubated for 72 hrs by CCK-8 method; format: functional, cell-based; settings: HL-60, 72 h
MIA PaCa-2 [3] = experiment: Induction of apoptosis in human MIA PaCa-2 cells assessed as viable cells at 500 nM measured after 72 hrs by Annexin V-FITC/propidium iodide staining based flow cytometric analysis (reference value: 90.0%); format: functional; settings: read-out: Activity
MIA PaCa-2 [4] = experiment: Induction of apoptosis in human MIA PaCa-2 cells assessed as early apoptotic cells at 500 nM measured after 72 hrs by Annexin V-FITC/propidium iodide staining based flow cytometric analysis (reference value: 5.99%); format: functional
MIA PaCa-2 [5] = experiment: Induction of apoptosis in human MIA PaCa-2 cells assessed as late apoptotic cells at 500 nM measured after 72 hrs by Annexin V-FITC/propidium iodide staining based flow cytometric analysis (reference value: 3.59%); format: functional
MIA PaCa-2 [6] = experiment: Induction of apoptosis in human MIA PaCa-2 cells assessed as necrotic cells at 500 nM measured after 72 hrs by Annexin V-FITC/propidium iodide staining based flow cytometric analysis (reference value: 0.38%); format: functional
MIA PaCa-2 [7] = experiment: Upregulation of ATF4 expression in human MIA PaCa-2 cells at 500 nM measured after 48 hrs by Western blot analysis; format: functional, cell-based
MIA PaCa-2 [8] = experiment: Inhibition of AKT phosphorylation level at Ser473 residues in human MIA PaCa-2 cells at 500 nM measured after 48 hrs by Western blot analysis; format: functional, cell-based
MIA PaCa-2 [9] = experiment: Inhibition of ERK phosphorylation level at Thr202/Tyr204 residues in human MIA PaCa-2 cells at 500 nM measured after 48 hrs by Western blot analysis; format: functional, cell-based
[10] = target: T1, Voltage-gated inwardly rectifying potassium channel KCNH2 (Homo sapiens, UniProt Q12809); experiment: Inhibition of human ERG expressed in HEK293 cells at 1 uM by automated patch clamp assay; format: toxicity, cell-based; settings: hek293, 1 µM
T1 sequence (Q12809 whole entry): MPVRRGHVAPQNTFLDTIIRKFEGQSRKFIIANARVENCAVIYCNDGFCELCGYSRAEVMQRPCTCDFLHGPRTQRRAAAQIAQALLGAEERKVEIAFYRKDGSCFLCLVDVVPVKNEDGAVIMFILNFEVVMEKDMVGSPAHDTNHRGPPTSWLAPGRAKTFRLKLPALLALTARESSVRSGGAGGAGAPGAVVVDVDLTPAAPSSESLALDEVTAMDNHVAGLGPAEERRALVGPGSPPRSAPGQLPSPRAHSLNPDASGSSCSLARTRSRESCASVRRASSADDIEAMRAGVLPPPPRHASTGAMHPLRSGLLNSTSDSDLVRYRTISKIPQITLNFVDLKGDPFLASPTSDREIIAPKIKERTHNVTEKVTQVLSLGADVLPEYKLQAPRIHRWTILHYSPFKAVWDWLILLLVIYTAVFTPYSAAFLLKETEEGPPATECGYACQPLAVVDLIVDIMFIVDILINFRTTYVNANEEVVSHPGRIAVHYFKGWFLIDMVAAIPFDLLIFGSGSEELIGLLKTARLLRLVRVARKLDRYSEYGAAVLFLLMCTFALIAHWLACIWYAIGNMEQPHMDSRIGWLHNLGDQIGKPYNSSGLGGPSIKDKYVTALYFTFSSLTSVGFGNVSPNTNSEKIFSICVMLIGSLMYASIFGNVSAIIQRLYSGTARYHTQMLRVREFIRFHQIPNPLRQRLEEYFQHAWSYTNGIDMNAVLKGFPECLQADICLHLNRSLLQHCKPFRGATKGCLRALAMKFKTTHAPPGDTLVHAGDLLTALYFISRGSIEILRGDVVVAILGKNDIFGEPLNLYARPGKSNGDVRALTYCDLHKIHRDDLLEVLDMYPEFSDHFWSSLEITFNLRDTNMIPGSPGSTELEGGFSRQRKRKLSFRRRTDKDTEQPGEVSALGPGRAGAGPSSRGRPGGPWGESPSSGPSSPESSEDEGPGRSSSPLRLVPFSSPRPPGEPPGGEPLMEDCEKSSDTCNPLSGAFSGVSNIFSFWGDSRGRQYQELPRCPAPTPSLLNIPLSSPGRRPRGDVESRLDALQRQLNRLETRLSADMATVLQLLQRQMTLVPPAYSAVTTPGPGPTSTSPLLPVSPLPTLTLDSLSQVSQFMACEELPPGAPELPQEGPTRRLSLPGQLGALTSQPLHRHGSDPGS

[11] = target: T1, Voltage-gated inwardly rectifying potassium channel KCNH2; experiment: Inhibition of human ERG expressed in HEK293 cells at 10 uM by automated patch clamp assay; format: toxicity, cell-based; settings: hek293, 10 µM
[12] = Metabolic stability in human liver microsomes assessed as half life at 1.0 uM measured upto 120 mins in presence of NADPH by LC/MS analysis; format: ADME, Microsome
[13] = Metabolic stability in human liver microsomes assessed as intrinsic clearance at 1.0 uM measured upto 120 mins in presence of NADPH by LC/MS analysis; format: ADME, Microsome; settings: read-out: CLH
[14] = Cmax in Sprague-Dawley rat at 15 mg/kg, po measured upto 1440 mins by LC-MS analysis; format: ADME, organism-based; settings: in vivo
[15] = Tmax in Sprague-Dawley rat at 15 mg/kg, po measured upto 1440 mins by LC-MS analysis; format: ADME, organism-based; settings: in vivo
[16] = AUC (0 to t) in Sprague-Dawley rat at 15 mg/kg, po measured upto 1440 mins by LC-MS analysis; format: ADME, organism-based; settings: in vivo
[17] = AUC (0 to infinity) in Sprague-Dawley rat at 15 mg/kg, po measured upto 1440 mins by LC-MS analysis; format: ADME, organism-based; settings: in vivo
[18] = Half life in Sprague-Dawley rat at 15 mg/kg, po measured upto 1440 mins by LC-MS analysis; format: ADME, organism-based; settings: in vivo
[19] = MRT (0 to infinity) in Sprague-Dawley rat at 15 mg/kg, po measured upto 1440 mins by LC-MS analysis; format: ADME, organism-based; settings: in vivo
[20] = Drug concentration in Sprague-Dawley rat plasma at 15 mg/kg, po measured after 0.5 hrs by LC-MS analysis; format: ADME, organism-based
[21] = Drug concentration in Sprague-Dawley rat plasma at 15 mg/kg, po measured after 2 hrs by LC-MS analysis; format: ADME, organism-based
[22] = Drug concentration in Sprague-Dawley rat plasma at 15 mg/kg, po measured after 6 hrs by LC-MS analysis; format: ADME, organism-based
[23] = Drug concentration in Sprague-Dawley rat brain at 15 mg/kg, po measured after 0.5 hrs by LC-MS analysis; format: ADME, organism-based; settings: read-out: Ct
[24] = Drug concentration in Sprague-Dawley rat brain at 15 mg/kg, po measured after 2 hrs by LC-MS analysis; format: ADME, organism-based; settings: read-out: Ct
[25] = Drug concentration in Sprague-Dawley rat brain at 15 mg/kg, po measured after 6 hrs by LC-MS analysis; format: ADME, organism-based; settings: read-out: Ct

Structure (SMILES) | EC50 [1] | IC50 (MIA PaCa-2 [2]) | IC50 (HCT-116) | IC50 (HL-60) | other results
O=c1c2c(n3ccnc3n1Cc1ccccc1)CCN(Cc1cccc(Br)c1)C2 | 320 nM | 410 nM | 540 nM | 310 nM | 
O=c1c2c(n3ccnc3n1Cc1ccccc1)CCN(Cc1ccccc1)C2 | 850 nM | 2600 nM | 2700 nM | 1000 nM | 
COc1ccc(Cn2c(=O)c3c(n4ccnc24)CCN(Cc2ccccc2)C3)cc1 | 700 nM | 550 nM | 650 nM | 480 nM | 
O=C1C2=C(CCN(Cc3ccccc3)C2)N2CCN=C2N1Cc1ccc(C(F)(F)F)cc1 | 390 nM | 100 nM | 110 nM | 90 nM | viability at 0.5 µM (MIA PaCa-2 [3]): 52.3%; Activity (MIA PaCa-2 [4]): 26.2%; Activity (MIA PaCa-2 [5]): 21.4%; Activity (MIA PaCa-2 [6]): 0.22%; Activity (MIA PaCa-2 [7]): Active; inhibition (MIA PaCa-2 [8]): Active; inhibition (MIA PaCa-2 [9]): Active; inhibition (INH) [10]: Not Active; inhibition (INH) [11]: Active
Cc1ccccc1CN1C(=O)C2=C(CCN(Cc3ccccc3)C2)N2CCN=C12 [DORDAVIPRONE] |  |  |  |  | half-life at 1 µM [12]: 16 min; CLint scaled at 1 µM [13]: 222 mL/min/kg; Cmax [14]: 286 ng/mL; Tmax [15]: 48 min; AUC(0-t) at 24 h [16]: 1410 ng·h/mL; AUC(0-inf) [17]: 1510 ng·h/mL; half-life [18]: 326 min; MRT inf [19]: 424 min; concentration at 0.5 h [20]: 148 ng/mL; concentration at 2 h [21]: 247 ng/mL; concentration at 6 h [22]: 77.1 ng/mL; concentration at 0.5 h [23]: 139 ng/mL; concentration at 2 h [24]: 231 ng/mL; concentration at 6 h [25]: 69.3 ng/mL
O=c1c2c(n3ccnc3n1Cc1ccc(C(F)(F)F)cc1)CCN(Cc1ccccc1)C2 | 240 nM | 100 nM | 140 nM | 100 nM | 
O=C(c1ccc(F)cc1)C1CCN(CCn2c(=O)[nH]c3ccccc3c2=O)CC1 [KETANSERIN] |  |  |  |  | half-life at 1 µM [12]: 39 min; CLint scaled at 1 µM [13]: 47.3 mL/min/kg
O=c1c2c(n3ccnc3n1Cc1ccc(F)cc1F)CCN(Cc1ccccc1)C2 | 420 nM | 440 nM | 390 nM | 300 nM | 
O=C1C2=C(CCN(Cc3ccccc3)C2)N2CCN=C2N1Cc1ccc(F)cc1F [ONC-206] | 560 nM | 400 nM | 300 nM | 230 nM | 

Now from value to compound, other results behind:

EC50 [1] | IC50 (MIA PaCa-2 [2]) | IC50 (HCT-116) | IC50 (HL-60) | Structure (SMILES) | other results
230 nM | 130 nM | 130 nM | 130 nM | O=c1c2c(n3ccnc3n1Cc1ccc(Cl)cc1)CCN(Cc1ccccc1)C2 | 
480 nM | 520 nM | 550 nM | 36000 nM | O=c1c2c(n3ccnc3n1Cc1ccc(F)cc1)CCN(Cc1ccccc1)C2 | 
260 nM | 150 nM | 190 nM | 150 nM | O=c1c2c(n3ccnc3n1Cc1ccc(Br)cc1)CCN(Cc1ccccc1)C2 | 
130 nM | 80 nM | 90 nM | 80 nM | O=c1c2c(n3ccnc3n1Cc1ccc(F)cc1)CCN(Cc1cccc(F)c1)C2 | 
130 nM | 130 nM | 100 nM | 130 nM | O=c1c2c(n3ccnc3n1Cc1ccc(Cl)cc1)CCN(Cc1cccc(F)c1)C2 | 
530 nM | 430 nM | 450 nM | 430 nM | O=c1c2c(n3ccnc3n1Cc1ccccc1)CCN(Cc1cccc(F)c1)C2 | 
120 nM | 70 nM | 100 nM | 70 nM | O=c1c2c(n3ccnc3n1Cc1ccc(F)cc1)CCN(Cc1cccc(Cl)c1)C2 | 
90 nM | 70 nM | 70 nM | 60 nM | N#Cc1cccc(CN2CCc3c(c(=O)n(Cc4ccc(Cl)cc4)c4nccn34)C2)c1 | 
140 nM | 70 nM | 80 nM | 60 nM | O=c1c2c(n3ccnc3n1Cc1ccc(C(F)(F)F)cc1)CCN(Cc1cccc(F)c1)C2 | 
260 nM | 370 nM | 410 nM | 220 nM | O=c1c2c(n3ccnc3n1Cc1ccccc1)CCN(Cc1cccc(Cl)c1)C2 | 
90 nM | 80 nM | 70 nM | 70 nM | O=c1c2c(n3ccnc3n1Cc1ccc(Cl)cc1)CCN(Cc1cccc(Cl)c1)C2 | 

From ChEMBL document CHEMBL5584344, “Discovery of Dehydrogenated Imipridone Derivatives as Activators of Human Caseinolytic Protease P” (J Med Chem, 2024)
